Reference: US11401234B2, “Deuterated compounds and uses thereof” (priority 2012, dated 2022)
Several values for one entry are separate records, joined by “and”; a condition that tells them apart may be missing. Equal entries are not always repeated.

Tests used:
[1] = test system: Human T cell leukaemia cells (Jurkat); experiment: Inhibition of cell proliferation in air or 1% oxygen (Coulter Counter relative cell number); type: cell-based; settings: 4 days, range of concentrations
22Rv1 prostate tumours = experiment: Tumour oxygenation (pO2) by Oxylite oxygen electrode probe in xenografts; type: in vivo, SCID mice
Protocol: • 22Rv1 cells grow as a solid tumour on the backs of SCID mice. • Tumour oxygenation was measured over 28 days in vehicle and bicalutamide (2 mg/kg/day) treated mice (see Table 3 above). • Bicalutamide caused a drop in tumour oxygenation (as shown in FIG. 10); from ˜15.3 mmHg (2% oxygen) to 2.0 mmHg (0.3% oxygen) at day 7 and to 0.5 mmHg (0.1% oxygen) at day 14. […] However, during the subsequent week (probably related to tumour size) the median oxygen levels […] to about 3 mmHg (0.4% oxygen) and do indicate recovery.

22Rv1 xenograft tumours = experiment: 22Rv1 xenograft tumour growth (calliper tumour volumes); type: in vivo, SCID mice; settings: 2 mg/kg/day oral gavage
Description: (ii) Effect of Bicalutamide on Blood Vessels in 22Rv1 Tumour Xenografts • Dorsal skin folds were secured using window chambers onto the backs of male SCID mice (>8 weeks). […] Tumour volume was normalised to day 6 (ie pre-prodrug addition).

LNCaP xenograft tumours = experiment: LNCaP xenograft tumour growth (calliper tumour volumes); type: in vivo, SCID mice

With `COc1cc([C@@H]2c3cc4c(cc3[C@@H](O[C@@H]3O[C@@H]5CO[C@@H](C)O[C@H]5[C@H](O)[C@H]3O)[C@H]3COC(=O)[C@H]23)OCO4)cc(OC)c1O` [VP-16] the “inhibition of cell proliferation (cytostatic activity, relative cell number)” value [1] was “hypoxia does not modify the cytostatic action”.

In the case of `CC(O)(CS(=O)(=O)c1ccc(F)cc1)C(=O)Nc1ccc(C#N)c(C(F)(F)F)c1` (stereo not drawn) [Bicalutamide], the “Mean pO2 ± SD” value (22Rv1 prostate tumours; day 0 (before commencement of treatment), 2 mg/kg/day oral gavage group, 2 mg/kg/day) is reported as 15.277 ± 11.254 mmHg, the tumour oxygenation (22Rv1 prostate tumours; day 0, 2 mg/kg/day group) is reported as 2 % oxygen and the tumour oxygenation (22Rv1 prostate tumours; day 7, 2 mg/kg/day) is reported as 0.3 % oxygen. The “Mean pO2 ± SD” value (22Rv1 prostate tumours; day 7 of treatment, 2 mg/kg/day oral gavage, 2 mg/kg/day) was 2.0 mmHg and 1.996 ± 1.989 mmHg, the tumour oxygenation (22Rv1 prostate tumours; day 14, 2 mg/kg/day) was 0.1 % oxygen and the “Mean pO2 ± SD” value (22Rv1 prostate tumours; day 14 of treatment, 2 mg/kg/day oral gavage, 2 mg/kg/day) was 0.5 mmHg and 0.486 ± 0.107 mmHg. The “Mean pO2 ± SD” value (22Rv1 prostate tumours; day 21 of treatment, 2 mg/kg/day oral gavage) was 1.291 ± 0.291 mmHg, the “Mean pO2 ± SD” value (22Rv1 prostate tumours; day 28 of treatment, 2 mg/kg/day oral gavage) was 11.905 ± 0.861 mmHg and the “time to reach four times the volume at the start of treatment” value (22Rv1 xenograft tumours) was 18.5 ± 0.8 days. For the same molecule, the Growth Delay (22Rv1 xenograft tumours; versus vehicle, time to four times start volume) was 4.5 days, the “Time to 2x start volume” value (LNCaP xenograft tumours; bicalutamide 2 mg/kg/day oral 28 days, OCT1002 50 mg/kg i.p. single dose day 7) was 16.2 ± 1.94 days and the “Growth Delay” value (LNCaP xenograft tumours; versus vehicle, time to reach twice the treatment size) was 5.1 days and 5 ± 3.82 days.

In the case of `[2H]C([2H])([2H])N(CCNc1ccc(NCCN(C([2H])([2H])[2H])C([2H])([2H])[2H])c2c1C(=O)c1c(O)ccc(O)c1C2=O)C([2H])([2H])[2H]` [OCT1001, 1,4-bis-{[2-(deuterated-d6-dimethylamino)ethyl]amino)-5,8-dihydroxy-anthracene-9,10-dione], the “loss of intracellular fluorescence attributable to metabolite, compared with AQ4” value (A549 cells; after 24 h post exposure recovery in drug free medium, normal oxygenation) is reported as “reduced loss” and the “cellular accumulation of intracellular fluorescence attributable to metabolite, compared with AQ4” value (A549 cells; after 4 day prodrug exposure under 1% oxygen) is reported as “reduced cellular accumulation”.
